According to patent publication US20200339511A1, “Substituted indoline derivatives as dengue viral replication inhibitors” (priority 2016, published 2020):
Read-outs that look alike come from different tables or passages of the source.

Key:
in vitro [1] = settings: African green monkey
DENV-4 strain H241 = assay: Tetravalent RT-qPCR assay, serotype 4; type: cell-based, Dengue virus; settings: Dengue virus, DENV4, Vero, 72 h, RT-qPCR serotype 4 H241, Protocol A, Vero cells, day 3
Experimental: (§1) Tetravalent reverse transcriptase quantitative-PCR (RT-qPCR) assay The antiviral activity of the compounds of the invention was tested against DENV-1 strain TC974#666 (NCPV), DENV-2 strain 16681, DENV-3 strain H87 (NCPV) and DENV-4 strain H241 (NCPV) in a RT-qPCR assay. Therefore, Vero cells were infected with either DENV-1, or -2, or -3, or -4 in the presence or absence of test compounds. At day 3 post-infection, the cells were lysed and cell lysates were used to prepare cDNA of both a viral target (the 3′UTR of DENV; Table 2) and a cellular reference gene (β-actin, Table 2). Subsequently, a duplex real time PCR was performed on a Lightcycler480 instrument. The generated Cp value is inversely proportional to the amount of RNA expression of these targets. Inhibition of DENV replication by a test compound results in a shift of Cp's for the 3′UTR gene. On the other hand, if a test compound is toxic to the cells, a similar effect on β-actin expression will be observed. The comparative ΔΔCp method is used to calculate EC50, which is based on the relative gene expression of the target gene (3′UTR) normalized with the cellular housekeeping gene (β-actin). In addition, CC50 values are determined based on the Cp values acquired for the housekeeping gene β-actin.
(§2) The culture medium consisted of minimal essential medium supplemented with 2% of heat-inactivated fetal calf serum, 0.04% gentamycin (50mg/mL) and 2 mM of L-glutamine. Vero cells, obtained from ECACC, were suspended in culture medium and 75 μL/well was added in 96-well plates (10000 cells/well), which already contain the antiviral compounds. […] In addition, each plate contains wells which are assigned as virus controls (containing cells and virus in the absence of compound) and cell controls (containing cells in the absence of virus and compound). Once the cells were added in the plates, the plates were incubated in a fully humidified incubator (37° C., 5% CO2) until the next day. Dengue viruses serotype-1, 2, 3 and 4 were diluted in order to obtain a Cp of ˜22-24 in the assay. Therefore, 25 μL of virus suspension was added to all the wells containing test compound and to the wells assigned as virus control. In parallel, 25 μL of culture medium was added to the cell controls. Next, the plates were incubated for 3 days in a fully humidified incubator (37° C., 5% CO2). After 3 days, the supernatant was removed from the wells and the cells were washed twice with ice-cold PBS (˜100 μL). The cell pellets within the 96-well plates were stored at −80° C. for at least 1 day. Next, RNA was extracted using the Cells-to-CT™ lysis kit, according to the manufacturer's guideline (Life Technologies). The cell lysates can be stored at −80° C. or immediately used in the reverse transcription step.
(§3) In preparation of the reverse transcription step, mix A (table 3A) was prepared and 7.57 μL/well was dispensed in a 96-well plate. After addition of 5 μL of the cell lysates, a five minute denaturation step at 75° C. was performed (table 3B). Afterwards, 7.43 μL of mix B was added (table 3C) and the reverse transcription step was initiated (table 3D) to generate cDNA.
(§4) Finally, a RT-qPCR mix was prepared, mix C (table 4A), and 22.02 μL/well was dispensed in 96-well LightCycler qPCR plates to which 3μL of cDNA was added and the qPCR was performed according to the conditions in table 4B on a LightCycler 480.
(§5) Using the LightCycler software and an in-house LIMS system, dose response curves for each compound were calculated and the half maximal effective concentration (EC50) and the half maximal cytotoxic concentration (CC50) were determined (Tables 5-8).

in vitro [2] = type: cell-based; settings: African green monkey
Experimental: as §1, §2, §5

DENV-1 strain TC974#666 = assay: Tetravalent RT-qPCR assay, serotype 1; type: cell-based, Dengue virus; settings: Dengue virus, DENV1, Vero, 72 h, RT-qPCR serotype 1 TC974#666, Protocol A, Vero cells, day 3
Experimental: as §1, §2, §3, §4, §5

DENV-3 strain H87 = assay: Tetravalent RT-qPCR assay, serotype 3; type: cell-based, Dengue virus; settings: Dengue virus, DENV3, Vero, 72 h, RT-qPCR serotype 3 H87, Protocol A, Vero cells, day 3
Experimental: as §1, §2, §3, §4, §5

DENV-2 strain 16681 = assay: Tetravalent RT-qPCR assay, serotype 2; type: cell-based, Dengue virus; settings: Dengue virus, DENV2, Vero, 72 h, RT-qPCR serotype 2 16681, Protocol A, Vero cells, day 3
Experimental: as §1, §2, §3, §4, §5

DENV-2 16681 strain = assay: DENV-2 antiviral assay (eGFP-labeled virus in Vero cells); type: cell-based, Dengue virus; settings: DENV-2 16681 eGFP, MOI 0.5, 3 days
Experimental: The antiviral activity of all the compounds of the invention was tested the against DENV-2 16681 strain which was labeled with enhanced green fluorescent protein (eGPF). The culture medium consists of minimal essential medium supplemented with 2% of heat-inactivated fetal calf serum, 0.04% gentamycin (50 mg/mL) and 2 mM of L-glutamine. Vero cells, obtained from ECACC, were suspended in culture medium and 25 μL was added to 384-well plates (2500 cells/well), which already contain the antiviral compounds. Typically, these plates contain a 5-fold serial dilution of 9 dilution steps of the test compound at 200 times the final concentration in 100% DMSO (200 nL). […] Finally, each plate contains wells which are assigned as virus controls (containing cells and virus in the absence of compound), cell controls (containing cells in the absence of virus and compound) and medium controls (containing medium in the absence of cells, virus and compounds). To the wells assigned as medium control, 25 μL of culture medium was added instead of Vero cells. Once the cells were added to the plates, the plates were incubated for 30 minutes at room temperature to allow the cells to distribute evenly within the wells. Next, the plates were incubated in a fully humidified incubator (37° C., 5% CO2) until the next day. Then, DENV-2 strain 16681, labeled with eGFP, was added at a multiplicity of infection (MOI) of 0.5. Therefore, 15 μL of virus suspension was added to all the wells containing test compound and to the wells assigned as virus control. In parallel, 15 μL of culture medium was added to the medium and cell controls. Next, the plates were incubated for 3 days in a fully humidified incubator (37° C., 5% CO2). At the day of the read out, the eGFP fluorescence was measured using an automated fluorescence microscope at 488 nm (blue laser). Using an in-house LIMS system, inhibition dose response curves for each compound were calculated and the half maximal effective concentration (EC50) was determined. Therefore, the percent inhibition (I) for every test concentration is calculated using the following formula: I=100*(ST-SCC)/(SVC-SCC), ST, SCC and SVC are the amount of eGFP signal in the test compound, cell control and virus control wells, respectively. The EC50 represents the concentration of a compound at which the virus replication is inhibited with 50%, as measured by a 50% reduction of the eGFP fluorescent intensity compared to the virus control. The EC50 is calculated using linear interpolation (Table 1).

Vero cells = settings: African green monkey
DENV-2 = settings: analogous DENV-2 antiviral assay, reported activity; cited from earlier work
[3] = Dengue virus, DENV2, Vero, 72 h

| SMILES | CC50 (in vitro [1]) [nM] | EC50 (DENV-4 strain H241; read-out: EC50) [nM] | CC50 at 3 days (in vitro [2]) [nM] | EC50 (DENV-1 strain TC974#666) [nM] | EC50 (DENV-3 strain H87) [nM] | EC50 (DENV-2 strain 16681) [nM] | EC50 (DENV-2 16681 strain) [nM] | CC50 (Vero cells) [nM] | EC50 (DENV-4 strain H241) [nM] | EC50 (DENV-2) [nM] | melting point [°C] | EC50 (DENV-2 16681 strain; [3]) [nM] |
| --- | --- | --- | --- | --- | --- | --- | --- | --- | --- | --- | --- | --- |
| COc1cc(NC(C(=O)N2CCc3ccc(OC(F)(F)F)cc32)c2ccc(Cl)cc2OC)cc(OCCO)c1 (single isomer, unassigned) [Compound 5A, 2-(4-chloro-2-methoxyphenyl)-2-((3-(2-hydroxyethoxy)-5-methoxyphenyl)amino)-1-(6-(trifluoromethoxy)indolin-1-yl)ethanone] | 9800 | 210 | 4700 | 2.6 | 20 | 3 | 1.4 |  |  |  |  |  |
| COc1cc(NC(C(=O)N2CCc3ccc(C(F)(F)F)cc32)c2ccc(Cl)cc2F)cc(OCCO)c1 (single isomer, unassigned) [Compound 2B, 2-(4-chloro-2-fluorophenyl)-2-((3-(2-hydroxyethoxy)-5-methoxyphenyl)amino)-1-(6-(trifluoromethyl)indolin-1-yl)ethanone] |  | 170 | 4800 | 2.4 | 29 | 3.2 | 2.5 | 13000 |  |  |  |  |
| COc1cc(NC(C(=O)N2CCc3cc(OC)c(OC(F)(F)F)cc32)c2ccc(Cl)cc2)cc(OCCO)c1 (single isomer, unassigned) [Compound 13A, 2-(4-chlorophenyl)-2-((3-(2-hydroxyethoxy)-5-methoxyphenyl)amino)-1-(5-methoxy-6-(trifluoromethoxy)indolin-1-yl)ethanone] |  |  | > 2500 | 6.3 | 43 | 1.5 | 3.5 | 12000 | 270 |  |  |  |
| COc1cccc(NC(C(=O)N2CCc3ccccc32)c2ccccc2)c1 (stereo not drawn) [(56) of WO-2013/045516] |  |  |  |  |  |  |  |  |  | 450 |  |  |
| COc1cc(NC(C(=O)N2CCc3ccc(OC(F)(F)F)cc32)c2ccc(Cl)cc2)cc(OCCO)c1 (racemic) [Compound 3, 2-(4-chlorophenyl)-2-((3-(2-hydroxyethoxy)-5-methoxyphenyl)amino)-1-(6-(trifluoromethoxy)indolin-1-yl)ethanone] | 9500 |  |  |  |  |  |  |  |  |  | 162 | 5.5 |
| COc1cc(NC(C(=O)N2CCc3cc(OC)c(C(F)(F)F)cc32)c2ccc(Cl)cc2OC)cc(OCCO)c1 (racemic) [Compound 11, 2-(4-chloro-2-methoxyphenyl)-2-((3-(2-hydroxyethoxy)-5-methoxyphenyl)amino)-1-(5-methoxy-6-(trifluoromethyl)indolin-1-yl)ethanone] | 22000 |  |  |  |  |  |  |  |  |  | 175 | 2.3 |
| COc1cc(NC(C(=O)N2CCc3ccc(OC(F)(F)F)cc32)c2ccc(Cl)cc2F)cc(OCCO)c1 (single isomer, unassigned) [Compound 6B, 2-(4-chloro-2-fluorophenyl)-2-((3-(2-hydroxyethoxy)-5-methoxyphenyl)amino)-1-(6-(trifluoromethoxy)indolin-1-yl)ethanone] |  | 140 | 4800 | 3.1 | 28 | 2 | 2.5 | 12000 |  |  |  |  |
| COc1cc(NC(C(=O)N2CCc3cc(F)c(C(F)(F)F)cc32)c2ccc(Cl)cc2)cc(OCCO)c1 (racemic) [Compound 12, 2-(4-chlorophenyl)-1-(5-fluoro-6-(trifluoromethyl)indolin-1-yl)-2-((3-(2-hydroxyethoxy)-5-methoxyphenyl)amino)ethanone] | 11000 |  |  |  |  |  |  |  |  |  | 130 | 11 |
| COc1cc(NC(C(=O)N2CCc3ccc(OC(F)(F)F)cc32)c2ccc(Cl)cc2OC)cc(OCCO)c1 (racemic) [Compound 5, 2-(4-chloro-2-methoxyphenyl)-2-((3-(2-hydroxyethoxy)-5-methoxyphenyl)amino)-1-(6-(trifluoromethoxy)indolin-1-yl)ethanone] | 9300 |  |  |  |  |  |  |  |  |  | 162 | 4.6 |
| COc1cc(NC(C(=O)N2CCc3ccc(C(F)(F)F)cc32)c2ccc(Cl)cc2)cc(OCCO)c1 (racemic) [Compound 4, 2-(4-chlorophenyl)-2-((3-(2-hydroxyethoxy)-5-methoxyphenyl)amino)-1-(6-(trifluoromethyl)indolin-1-yl)ethanone] | 9700 |  |  |  |  |  |  |  |  |  | 160 | 6.7 |
| COc1cc(NC(C(=O)N2CCc3cc(OC)c(C(F)(F)F)cc32)c2ccc(Cl)cc2)cc(OCCO)c1 (single isomer, unassigned) [Compound 7B, 2-(4-chlorophenyl)-2-((3-(2-hydroxyethoxy)-5-methoxyphenyl)amino)-1-(5-methoxy-6-(trifluoromethyl)indolin-1-yl)ethanone] |  | 120 | 4100 | 5.1 | 30 | 0.96 | 1 | 12000 |  |  |  |  |
| COc1cc(NC(C(=O)N2CCc3ccc(C(F)(F)F)cc32)c2ccc(Cl)cc2OC)cc(OCCO)c1 (racemic) [Compound 1, 2-(4-chloro-2-methoxyphenyl)-2-((3-(2-hydroxyethoxy)-5-methoxyphenyl)amino)-1-(6-(trifluoromethyl)indolin-1-yl)ethanone] | 13000 |  |  |  |  |  |  |  |  |  | 194 | 5.6 |
